Reference: the NIST ThermoML archive (doi:10.1021/acs.jced.9b00442)
± gives the expanded uncertainty stated by the source.

Conditions: 100 kPa, Liquid; for electrical conductivity: Frequency=0.0006 MHz, Alternating current cell with electrodes; for viscosity: Concentric cylinders viscometry; for mass density: Vibrating tube method

Which results are given for `C[N+](CCO)(CCO)CCO.O=S(=O)([N-]S(=O)(=O)C(F)(F)F)C(F)(F)F`?
electrical conductivity (283.15 K): 0.01 ± 0.001 S/m; viscosity (288.15 K): 1283.1 ± 73 mPa·s; electrical conductivity (288.15 K): 0.017 ± 0.001 S/m; mass density (289.15 K): 1574.9 ± 1.2 kg/m3; mass density (290.15 K): 1574 ± 1.2 kg/m3; mass density (291.15 K): 1573.1 ± 1.2 kg/m3; mass density (292.15 K): 1572.2 ± 1.2 kg/m3; viscosity (293.15 K): 838.5 ± 45 mPa·s; electrical conductivity (293.15 K): 0.025 ± 0.001 S/m; mass density (293.15 K): 1571.3 ± 1.2 kg/m3; mass density (294.15 K): 1570.4 ± 1.2 kg/m3; mass density (295.15 K): 1569.5 ± 1.2 kg/m3; mass density (296.15 K): 1568.6 ± 1.2 kg/m3; mass density (297.15 K): 1567.7 ± 1.2 kg/m3; viscosity (298.15 K): 568.8 ± 29 mPa·s; electrical conductivity (298.15 K): 0.036 ± 0.001 S/m; mass density (298.15 K): 1566.8 ± 1.2 kg/m3; mass density (299.16 K): 1565.9 ± 1.2 kg/m3; mass density (300.16 K): 1565 ± 1.2 kg/m3; mass density (301.15 K): 1564.1 ± 1.2 kg/m3; mass density (302.15 K): 1563.2 ± 1.2 kg/m3; viscosity (303.15 K): 397.8 ± 19 mPa·s; electrical conductivity (303.15 K): 0.05 ± 0.001 S/m; mass density (303.15 K): 1562.3 ± 1.2 kg/m3; mass density (304.15 K): 1561.4 ± 1.2 kg/m3; mass density (305.15 K): 1560.5 ± 1.2 kg/m3; mass density (306.15 K): 1559.6 ± 1.2 kg/m3; mass density (307.15 K): 1558.7 ± 1.2 kg/m3; viscosity (308.15 K): 285.9 ± 13 mPa·s; electrical conductivity (308.15 K): 0.068 ± 0.001 S/m; mass density (308.15 K): 1557.8 ± 1.2 kg/m3; mass density (309.15 K): 1556.9 ± 1.2 kg/m3; mass density (310.15 K): 1556 ± 1.2 kg/m3; mass density (311.15 K): 1555.1 ± 1.2 kg/m3; mass density (312.15 K): 1554.2 ± 1.2 kg/m3; viscosity (313.15 K): 211.1 ± 9.3 mPa·s; electrical conductivity (313.15 K): 0.09 ± 0.002 S/m; mass density (313.15 K): 1553.3 ± 1.2 kg/m3; mass density (314.15 K): 1552.4 ± 1.2 kg/m3; mass density (315.15 K): 1551.5 ± 1.2 kg/m3; mass density (316.15 K): 1550.6 ± 1.2 kg/m3; mass density (317.15 K): 1549.7 ± 1.2 kg/m3; viscosity (318.15 K): 158.7 ± 6.8 mPa·s; electrical conductivity (318.15 K): 0.117 ± 0.002 S/m; mass density (318.15 K): 1548.8 ± 1.2 kg/m3; mass density (319.15 K): 1547.9 ± 1.2 kg/m3; mass density (320.15 K): 1547 ± 1.2 kg/m3; mass density (321.15 K): 1546.1 ± 1.2 kg/m3; mass density (322.15 K): 1545.2 ± 1.2 kg/m3; viscosity (323.15 K): 122 ± 5.1 mPa·s; electrical conductivity (323.15 K): 0.149 ± 0.003 S/m; mass density (323.15 K): 1544.3 ± 1.2 kg/m3; mass density (324.15 K): 1543.4 ± 1.2 kg/m3; mass density (325.15 K): 1542.5 ± 1.2 kg/m3; mass density (326.15 K): 1541.6 ± 1.2 kg/m3; mass density (327.15 K): 1540.7 ± 1.2 kg/m3; viscosity (328.15 K): 95.6 ± 3.9 mPa·s; mass density (328.15 K): 1539.8 ± 1.2 kg/m3; mass density (329.15 K): 1538.9 ± 1.2 kg/m3; mass density (330.15 K): 1538.1 ± 1.2 kg/m3; mass density (331.15 K): 1537.2 ± 1.2 kg/m3; mass density (332.15 K): 1536.3 ± 1.2 kg/m3; viscosity (333.15 K): 76.5 ± 3.1 mPa·s; mass density (333.15 K): 1535.4 ± 1.2 kg/m3; mass density (334.15 K): 1534.5 ± 1.2 kg/m3; mass density (335.16 K): 1533.6 ± 1.2 kg/m3; mass density (336.15 K): 1532.8 ± 1.2 kg/m3; mass density (337.15 K): 1531.9 ± 1.2 kg/m3; viscosity (338.15 K): 61.7 ± 2.5 mPa·s; mass density (338.15 K): 1531 ± 1.2 kg/m3; mass density (339.15 K): 1530.1 ± 1.2 kg/m3; mass density (340.15 K): 1529.2 ± 1.2 kg/m3; mass density (341.15 K): 1528.4 ± 1.2 kg/m3; mass density (342.15 K): 1527.5 ± 1.2 kg/m3; viscosity (343.15 K): 50.6 ± 2 mPa·s; mass density (343.15 K): 1526.6 ± 1.2 kg/m3; mass density (344.15 K): 1525.8 ± 1.2 kg/m3; mass density (345.15 K): 1524.9 ± 1.2 kg/m3; mass density (346.15 K): 1524 ± 1.2 kg/m3; mass density (347.15 K): 1523.1 ± 1.2 kg/m3; viscosity (348.15 K): 42.1 ± 1.7 mPa·s; mass density (348.15 K): 1522.3 ± 1.2 kg/m3; mass density (349.15 K): 1521.4 ± 1.2 kg/m3; mass density (350.15 K): 1520.5 ± 1.2 kg/m3; mass density (351.15 K): 1519.7 ± 1.2 kg/m3; mass density (352.15 K): 1518.8 ± 1.2 kg/m3; viscosity (353.15 K): 35.6 ± 1.4 mPa·s; mass density (353.15 K): 1518 ± 1.2 kg/m3; mass density (354.15 K): 1517.1 ± 1.2 kg/m3; mass density (355.15 K): 1516.2 ± 1.2 kg/m3; mass density (356.15 K): 1515.4 ± 1.2 kg/m3; mass density (357.15 K): 1514.5 ± 1.2 kg/m3; viscosity (358.15 K): 30.1 ± 1.2 mPa·s; mass density (358.15 K): 1513.6 ± 1.2 kg/m3; mass density (359.15 K): 1512.8 ± 1.2 kg/m3; mass density (360.15 K): 1511.9 ± 1.2 kg/m3; mass density (361.15 K): 1511.1 ± 1.2 kg/m3; mass density (362.16 K): 1510.2 ± 1.2 kg/m3; viscosity (363.15 K): 25.8 ± 1 mPa·s; mass density (363.15 K): 1509.3 ± 1.2 kg/m3
